# In patent US20060223846A1, “Aza-bridged-bicyclic amino acid derivatives as alpha4 integrin antagonists” (priority 2005, published 2006):
# Where two headings read alike, the source gives them in different places.
# How the values were obtained:
# α4β1 [1] = biological target: T1, α4β1 (Homo sapiens, UniProt P05556+P13612); experiment: Ramos Cell Adhesion Assay (α4β1 Mediated Adhesion/VCAM-1); format: cell-based; design: Ramos cells, (50 μL at 2×10^6/mL) labeled with 5 μM Calcein AM; endogenous in cells; host or cells: Ramos cells
# Procedure: (§1) Ramos Cell Adhesion Assay α4β1 Mediated Adhesion/VCAM-1) Immulon 9.6 well plates (Dynex) were coated with 100 μL recombinant hVCAM-1 at 4.0 μg/mL in 0.05 M NaCO3 buffer pH 9.0 overnight at 4° C. (R&D Systems). Plates were washed 3 times in PBS with 1% BSA and blocked for 1 h @ room temperature in this buffer. PBS was removed and compounds to be tested (50 μL) were added at 2× concentration. Ramos cells, (50 μL at 2×10^6/mL) labeled with 5 μM Calcein AM (Molecular Probes) for 1 h at 37° C., were added to each well and allowed to adhere for 1 h at room temperature. Plates were washed 3× in PBS+1% BSA and cells were lysed for 15 minutes in 100 μL of 1 M Tris pH 8.0 with 1% SDS. The plate was read at 485 nm excitation and 530 nm emission.
# human α4β7 = biological target: T2, human α4β7 (Homo sapiens, UniProt P13612+P26010); experiment: α4β7-K562 Cell Adhesion Assay (α4β7 Mediated Adhesion/VCAM-1); format: cell-based
# T2 construct: expressed in transfected cells
# T2 sequence (P13612 34-1032): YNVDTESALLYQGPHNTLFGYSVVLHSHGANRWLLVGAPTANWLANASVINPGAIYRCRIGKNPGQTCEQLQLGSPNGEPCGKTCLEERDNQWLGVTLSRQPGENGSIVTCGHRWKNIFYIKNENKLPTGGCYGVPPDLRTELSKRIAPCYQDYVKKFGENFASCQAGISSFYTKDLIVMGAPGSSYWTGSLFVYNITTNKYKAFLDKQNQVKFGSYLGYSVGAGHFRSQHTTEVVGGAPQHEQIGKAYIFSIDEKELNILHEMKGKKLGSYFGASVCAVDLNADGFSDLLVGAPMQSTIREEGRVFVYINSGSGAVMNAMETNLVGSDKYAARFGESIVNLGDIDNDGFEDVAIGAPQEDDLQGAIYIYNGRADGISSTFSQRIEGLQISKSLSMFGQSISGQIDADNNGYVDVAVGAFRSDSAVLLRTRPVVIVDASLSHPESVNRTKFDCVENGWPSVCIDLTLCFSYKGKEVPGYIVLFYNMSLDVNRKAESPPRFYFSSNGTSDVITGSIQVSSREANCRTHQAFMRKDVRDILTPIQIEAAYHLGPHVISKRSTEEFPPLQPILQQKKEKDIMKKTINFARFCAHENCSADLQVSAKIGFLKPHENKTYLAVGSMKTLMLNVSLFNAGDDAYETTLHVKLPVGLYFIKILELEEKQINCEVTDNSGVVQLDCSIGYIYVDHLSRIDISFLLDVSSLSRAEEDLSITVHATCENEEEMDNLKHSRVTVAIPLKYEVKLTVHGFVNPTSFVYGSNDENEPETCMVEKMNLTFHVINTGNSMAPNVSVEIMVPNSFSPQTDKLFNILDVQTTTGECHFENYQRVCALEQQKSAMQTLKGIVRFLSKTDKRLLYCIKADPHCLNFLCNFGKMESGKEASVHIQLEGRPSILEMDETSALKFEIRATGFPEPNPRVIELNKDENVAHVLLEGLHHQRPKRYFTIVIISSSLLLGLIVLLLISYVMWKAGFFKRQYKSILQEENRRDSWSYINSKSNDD
# T2 sequence (P26010 20-798): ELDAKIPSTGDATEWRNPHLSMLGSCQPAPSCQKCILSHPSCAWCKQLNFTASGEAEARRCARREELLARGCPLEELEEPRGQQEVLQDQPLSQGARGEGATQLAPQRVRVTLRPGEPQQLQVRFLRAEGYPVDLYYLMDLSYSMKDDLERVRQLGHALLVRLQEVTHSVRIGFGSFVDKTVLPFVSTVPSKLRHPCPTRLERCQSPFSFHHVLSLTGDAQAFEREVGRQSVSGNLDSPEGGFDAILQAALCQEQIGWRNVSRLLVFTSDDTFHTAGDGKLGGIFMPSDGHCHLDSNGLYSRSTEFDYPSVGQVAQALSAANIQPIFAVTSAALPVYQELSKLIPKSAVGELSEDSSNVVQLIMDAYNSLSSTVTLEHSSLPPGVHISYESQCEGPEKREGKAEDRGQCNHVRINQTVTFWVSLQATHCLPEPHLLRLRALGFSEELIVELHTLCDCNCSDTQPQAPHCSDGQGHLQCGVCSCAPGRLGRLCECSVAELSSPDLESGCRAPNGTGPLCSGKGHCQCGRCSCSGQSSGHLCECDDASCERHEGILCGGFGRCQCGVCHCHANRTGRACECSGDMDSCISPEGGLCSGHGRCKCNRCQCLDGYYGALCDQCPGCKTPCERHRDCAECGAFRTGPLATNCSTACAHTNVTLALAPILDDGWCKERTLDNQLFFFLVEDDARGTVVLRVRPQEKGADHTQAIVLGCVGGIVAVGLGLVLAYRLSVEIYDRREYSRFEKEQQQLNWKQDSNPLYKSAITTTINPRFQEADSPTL
# Procedure: as §1, with “α4β7-K562” for “Ramos”, “(α4β7” for “α4β1”, “96” for “9.6”, “System).” for “Systems).”, “A stable cell line of K562 cells expressing human α4β7,” for “Ramos cells,”
# [2] = test system: circulating white blood cells (leukocytes); experiment: Leukocytosis Procedure; format: in vivo, Balb/c mice; details: bled 1-1.5 hours after administration
# Description: Background: Leukocytosis is the increase in circulating white blood cells (leukocytes). Luekocytosis can be caused by preventing leukocyte binding to integrin counter-receptor adhesion molecules expressed on high endothelial venules. This cell adhesion occurs between immunoglobulin superfamily molecules and integrins. Relevant examples of these paired interactions include […] Adhesion Molecule-1 and αLβ2 integrin, Vascular Cell Adhesion Molecule-1 and α4β1 integrin, and Mucosal Addressin Cell Adhesion Molecule-1 and α4β7 integrin, respectively.
# In this model, a compound that antagonizes these leukocyte-endothelial interactions will cause an increase in circulating leukocytes, defined as leukocytosis, as measured at 1-1.5 hours post-administration. This leukocytosis is indicative that normal lymphocyte or leukocyte emigration from the peripheral circulation was prevented. Similar emigration of cells out of the circulation into inflamed tissues is responsible for the progression and maintenance of the inflammatory state. Leukocytosis is an indication that lymphocyte and leukocyte extravasation is prevented, and is predictive of general anti-inflammatory activity.
# 1 week prior to being tested, 7-10 week old female Balb/c mice, n=8 per group, were bled and randomized according to leukocyte counts. One week later, the mice were administered a test compound orally or subcutaneously and then bled 1-1.5 hours after drug administration, approximately one hour after the peak blood concentration of the compound had occurred. Whole blood, 250-350 microliters, was collected from each mouse into potassium-EDTA serum collection tubes (Becton-Dickenson) and mixed to prevent clotting.
# Cell counts and differential counts on the whole blood preparation were performed using an Advia 120 Hematology System (Bayer Diagnostics). Cell counts as total leukocytes and as total lympohcytes were made and compared to counts made from mice dosed with vehicle only. Data were reported as percent of vehicle control for lymphocyte counts and total leukocyte counts. Statistical analyses were performed using ANOVA with Dunnet's multiple comparison test
# [3] = test system: oxazolone-induced contact hypersensitivity; details: 6 mg/kg, sc; mouse; cited from earlier work
# α4β1 [4] = biological target: T1, α4β1; details: literature (Tamraz et al.); cited from earlier work
# [5] = test system: heterotopic heart allograft; details: hyperlipidemic rabbit; cited from earlier work
# T1 sequence (P05556 21-798, one chain of several): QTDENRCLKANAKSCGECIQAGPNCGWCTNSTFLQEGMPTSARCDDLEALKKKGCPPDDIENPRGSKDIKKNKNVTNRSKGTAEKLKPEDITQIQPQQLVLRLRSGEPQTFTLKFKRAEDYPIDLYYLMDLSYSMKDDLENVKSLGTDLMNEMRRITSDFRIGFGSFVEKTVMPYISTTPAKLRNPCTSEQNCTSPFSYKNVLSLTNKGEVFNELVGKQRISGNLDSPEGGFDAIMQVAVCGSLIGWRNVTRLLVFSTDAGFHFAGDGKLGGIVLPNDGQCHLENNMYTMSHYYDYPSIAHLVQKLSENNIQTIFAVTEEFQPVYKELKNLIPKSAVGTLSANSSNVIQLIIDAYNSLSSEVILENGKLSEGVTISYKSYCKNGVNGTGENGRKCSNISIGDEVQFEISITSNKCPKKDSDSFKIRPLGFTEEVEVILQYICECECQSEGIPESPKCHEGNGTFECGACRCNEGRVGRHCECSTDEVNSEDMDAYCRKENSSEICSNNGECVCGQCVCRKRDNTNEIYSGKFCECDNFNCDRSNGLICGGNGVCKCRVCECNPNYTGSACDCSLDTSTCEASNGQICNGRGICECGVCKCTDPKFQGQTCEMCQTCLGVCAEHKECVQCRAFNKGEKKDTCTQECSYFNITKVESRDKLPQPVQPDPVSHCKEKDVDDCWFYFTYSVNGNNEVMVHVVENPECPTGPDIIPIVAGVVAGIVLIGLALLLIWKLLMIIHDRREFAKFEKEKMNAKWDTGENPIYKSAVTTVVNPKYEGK
Compound,"IC50 (α4β1 [1]; Ramos cells on recombinant hVCAM-1, read-out: α4β1 IC50) [nM]","IC50 (α4β1 [1]; repeated in leukocytosis table, unit inferred, read-out: α4β1) [nM]","IC50 (human α4β7; K562 cells expressing human α4β7 on recombinant hVCAM-1, read-out: α4β7 IC50) [nM]","IC50 (human α4β7; repeated in leukocytosis table, unit inferred, read-out: α4β7) [nM]",Lymphocyte Counts % of Vehicle Control ([2]; 3 mg/kg sc),Total Leukocyte Counts % of Vehicle Control ([2]; 3 mg/kg sc),Lymphocyte Counts % of Vehicle Control ([2]; 10 mg/kg sc),Total Leukocyte Counts % of Vehicle Control ([2]; 10 mg/kg sc),Lymphocyte Counts % of Vehicle Control ([2]; 30 mg/kg sc),Total Leukocyte Counts % of Vehicle Control ([2]; 30 mg/kg sc),efficacy in oxazolone-induced contact hypersensitivity [3],IC50 (α4β1 [4]) [nM],efficacy in heart allograft model [5]
O=C(Nc1ccc(CC(NC(=O)C2C3CCC(CC3)N2C(=O)CCc2ccccc2)C(=O)O)cc1)c1c(Cl)cncc1Cl (stereo not shown) [Cpd 39],0.9,0.9,7,7,205.2 % of Vehicle Control,175.1 % of Vehicle Control,150.3 % of Vehicle Control,134.3 % of Vehicle Control,253.9 % of Vehicle Control,212.2 % of Vehicle Control,–,–,–
Phenylacetyl-Leu-Asp-Phe-D-Pro-NH2,–,–,–,–,–,–,–,–,–,–,efficacy similar to the α4 antibody PS/2,2000,effective
